In patent US20090176664A1, “High density peptide arrays containing kinase or phosphatase substrates” (priority 2007, published 2009):

System: Src and Abl kinases
Assay: Kinase inhibition assay with different kinase inhibitors on peptide array with Abl and Src peptide substrates
Type: biochemical
Details: FIG. 23; Src and Abl kinases plus one of three inhibitors
Experimental: Activity is measured using peptide arrays with Abl and Src peptide substrates.

With `COc1cc(Nc2c(C#N)cnc3cc(OCCCN4CCN(C)CC4)c(OC)cc23)c(Cl)cc1Cl` [SKI606] the “specificity of the kinase inhibitor for their respective kinase” value was “expected specificity”.
